In paper PMC4701504, “Immunogenicity of HLA Class I and II Double Restricted Influenza A-Derived Peptides” (PLoS ONE, 2016):
Where two headings read alike, the source gives them in different places. Where a SMILES comes first, the peptide text is derived from it.

Legend:
[1] = biological target: recombinant HLA-DRA*01:01/DRB1*01:01 molecules (Homo sapiens, UniProt P01903+P01911, A100R/D57E/F55L/F60I/F76Y/I96L/L162R/M171V/P40L/Q125E/R42F/V115G/Y59C); assay: biochemical; type: binding
[2] = biological target: HLA-A*02:01 (Homo sapiens, UniProt P04439, D140Y/D185E/D98H/E176V/E277Q/G131W/G231S/I119V/I121R/I166T/I218V/L300P/L318F/N151K/N90K/P208A/P217A/Q86G/Q94H/R138H/R169H/T345S); assay: biochemical; type: binding
[3] = tested on: CD8 and CD4 T cells of HLA-A*02:01/HLA-DRB1*01:01 transgenic mice; type: in vivo; design: key: I, CD8 response; II, CD4 response; -,no response; conditions: CAF09 + 20 nmol peptide i.p. three times at two week intervals; IFNγ ELISpot one week after last immunization (Fig 1)
[4] = read-out: HLA-DRB1*01:01 Measured
[5] = […], peptide concentration at half-saturation as approximation of KD, read-out: HLA-A*02:01 Measured

| Molecule | Kd [1, 4] [nM] | Kd [2, 5] [nM] | also measured |
| --- | --- | --- | --- |
| CC[C@H](C)[C@H](NC(=O)[C@@H]1CCCN1C(=O)[C@H](CCCNC(=N)N)NC(=O)[C@@H](NC(=O)[C@H](CCCCN)NC(=O)[C@H](CC(C)C)NC(=O)[C@H](Cc1c[nH]c2ccccc12)NC(=O)[C@H](CCC(=O)O)NC(=O)[C@H](CCSC)NC(=O)[C@H](CC(C)C)NC(=O)[C@@H](N)C(C)C)[C@@H](C)O)C(=O)O [M(41–51)] (H-VLMEWLKTRPI-OH) | 119 | 101 |  |
| CSCC[C@H](NC(=O)[C@@H](N)CCCNC(=N)N)C(=O)NCC(=O)N[C@@H](C)C(=O)N[C@H](C(=O)N[C@H](C(=O)N[C@H](C(=O)N[C@@H](CCC(=O)O)C(=O)N[C@H](C(=O)O)C(C)C)[C@@H](C)O)[C@@H](C)O)C(C)C [M(134–142)] (H-RMGAVTTEV-OH) | > 5000 |  | Kd [2]: 133 nM |
| CC[C@H](C)[C@H](NC(=O)[C@H](CC(C)C)NC(=O)[C@H](C)NC(=O)[C@H](CO)NC(=O)[C@H](CCCNC(=N)N)NC(=O)[C@H](C)NC(=O)[C@H](CC(C)C)NC(=O)[C@@H](N)Cc1ccccc1)C(=O)N[C@@H](CC(C)C)C(=O)O [NP(258–266)] (H-FLARSALIL-OH) | 97 |  | Kd [2]: 0.9 nM |
| CC[C@H](C)[C@H](NC(=O)CNC(=O)[C@@H](NC(=O)[C@H](CC(C)C)NC(=O)[C@@H](N)CO)C(C)C)C(=O)N[C@@H](CC(=O)O)C(=O)N1CCC[C@H]1C(=O)N[C@@H](Cc1ccccc1)C(=O)N[C@@H](CCCNC(=N)N)C(=O)N[C@@H](CC(C)C)C(=O)O [NP(297–306)] (H-SLVGIDPFRL-OH) |  | 70 | Kd [1]: 460 nM |
| CC[C@H](C)[C@H](N)C(=O)N[C@H](C(=O)N[C@@H](CC(C)C)C(=O)N[C@@H](CCCCN)C(=O)N[C@@H](C)C(=O)N[C@@H](CC(N)=O)C(=O)N[C@@H](Cc1ccccc1)C(=O)N[C@@H](CO)C(=O)N[C@H](C(=O)O)C(C)C)[C@@H](C)CC [NS1(128–136)] (H-IILKANFSV-OH) | > 5000 | 45 |  |
| CSCC[C@H](NC(=O)[C@@H](N)Cc1ccccc1)C(=O)N[C@@H](CCC(N)=O)C(=O)N[C@@H](C)C(=O)N[C@@H](CC(C)C)C(=O)N[C@@H](Cc1c[nH]cn1)C(=O)N[C@@H](CC(C)C)C(=O)N[C@@H](CC(C)C)C(=O)N[C@@H](CC(C)C)C(=O)O [NS2(99–107)] (H-FMQALHLLL-OH) | > 5000 | 13 |  |
| CC[C@H](C)[C@H](NC(=O)[C@H](CO)NC(=O)[C@H](CC(C)C)NC(=O)[C@H](CCCCN)NC(=O)[C@H](CC(C)C)NC(=O)[C@H](C)NC(=O)[C@H](CC(=O)O)NC(=O)[C@H](CCSC)NC(=O)[C@H](CC(C)C)NC(=O)[C@H](CC(C)C)NC(=O)[C@@H](N)Cc1ccccc1)C(=O)O [PA(282–292)] (H-FLLMDALKLSI-OH) | 23 | 24 |  |
| CSCC[C@H](NC(=O)[C@H](CO)NC(=O)[C@H](CCC(=O)O)NC(=O)[C@H](CCSC)NC(=O)[C@@H](NC(=O)[C@H](CC(=O)O)NC(=O)[C@H](CCCCN)NC(=O)[C@H](CC(C)C)NC(=O)[C@@H](N)Cc1ccccc1)C(C)C)C(=O)O [PB1(166–174)] (H-FLKDVMESM-OH) |  | 51 | Kd [1]: > 5000 nM |
| CC[C@H](C)[C@H](NC(=O)[C@H](CC(C)C)NC(=O)[C@@H](N)Cc1ccc(O)cc1)C(=O)N[C@@H](CCCNC(=N)N)C(=O)N[C@@H](C)C(=O)N[C@@H](CC(C)C)C(=O)N[C@H](C(=O)N[C@@H](CC(C)C)C(=O)N[C@@H](CC(N)=O)C(=O)N[C@H](C(=O)N[C@@H](CCSC)C(=O)O)[C@@H](C)O)[C@@H](C)O [PB1(217–227)] (H-YLIRALTLNTM-OH) | 76 | 46 |  |
| CC[C@H](C)[C@H](NC(=O)[C@H](CCSC)NC(=O)[C@H](C)NC(=O)[C@H](CC(C)C)NC(=O)[C@@H](N)Cc1ccccc1)C(=O)N[C@H](C(=O)N[C@@H](Cc1ccc(O)cc1)C(=O)N[C@@H](CCSC)C(=O)N[C@H](C(=O)O)[C@@H](C)O)[C@@H](C)O [PB1(318–326)] (H-FLAMITYMT-OH) | 557 | 253 |  |
| CSCC[C@H](NC(=O)CNC(=O)[C@H](CCSC)NC(=O)[C@H](CCSC)NC(=O)[C@@H](N)CCSC)C(=O)N[C@@H](Cc1ccccc1)C(=O)N[C@@H](CC(N)=O)C(=O)N[C@@H](CCSC)C(=O)N[C@@H](CC(C)C)C(=O)N[C@@H](CO)C(=O)N[C@H](C(=O)O)[C@@H](C)O [PB1(407–417)] (H-MMMGMFNMLST-OH) | 315 | 36 |  |
| CSCC[C@H](NC(=O)CNC(=O)[C@H](CCSC)NC(=O)[C@@H](N)CCSC)C(=O)N[C@@H](Cc1ccccc1)C(=O)N[C@@H](CC(N)=O)C(=O)N[C@@H](CCSC)C(=O)N[C@@H](CC(C)C)C(=O)N[C@@H](CO)C(=O)N[C@H](C(=O)N[C@H](C(=O)O)C(C)C)[C@@H](C)O [PB1(408–418)] (H-MMGMFNMLSTV-OH) | 172 | 51 |  |
| CSCC[C@H](NC(=O)CN)C(=O)N[C@@H](Cc1ccccc1)C(=O)N[C@@H](CC(N)=O)C(=O)N[C@@H](CCSC)C(=O)N[C@@H](CC(C)C)C(=O)N[C@@H](CO)C(=O)N[C@H](C(=O)N[C@H](C(=O)O)C(C)C)[C@@H](C)O [PB1(410–418)] (H-GMFNMLSTV-OH) | 34 | 23 |  |
| CSCC[C@H](NC(=O)CN)C(=O)N[C@@H](Cc1ccccc1)C(=O)N[C@@H](CC(N)=O)C(=O)N[C@@H](CCSC)C(=O)N[C@@H](CC(C)C)C(=O)N[C@@H](CO)C(=O)N[C@H](C(=O)N[C@H](C(=O)N[C@@H](CC(C)C)C(=O)O)C(C)C)[C@@H](C)O [PB1(410–419)] (H-GMFNMLSTVL-OH) | 29 | 384 |  |
| CSCC[C@H](NC(=O)[C@@H](N)CC(N)=O)C(=O)N[C@@H](CC(C)C)C(=O)N[C@@H](CO)C(=O)N[C@H](C(=O)N[C@H](C(=O)N[C@@H](CC(C)C)C(=O)NCC(=O)N[C@H](C(=O)O)C(C)C)C(C)C)[C@@H](C)O [PB1(413–421)] (H-NMLSTVLGV-OH) | > 5000 | 16 |  |
| CC[C@H](C)[C@H](NC(=O)[C@@H]1CCCN1C(=O)[C@H](Cc1ccc(O)cc1)NC(=O)[C@H](CCCCN)NC(=O)[C@H](CCSC)NC(=O)[C@H](C)NC(=O)[C@H](CCSC)NC(=O)[C@H](CCSC)NC(=O)[C@@H](N)Cc1c[nH]c2ccccc12)C(=O)O [PB2(49–57)] (H-WMMAMKYPI-OH) | > 5000 | 36 |  |
| CC[C@H](C)[C@H](NC(=O)[C@@H]1CCCN1C(=O)[C@H](Cc1ccc(O)cc1)NC(=O)[C@H](CCCCN)NC(=O)[C@H](CCSC)NC(=O)[C@H](C)NC(=O)[C@H](CCSC)NC(=O)[C@H](CCSC)NC(=O)[C@@H](N)Cc1c[nH]c2ccccc12)C(=O)N[C@H](C(=O)N[C@@H](C)C(=O)O)[C@@H](C)O [PB2(49–59)] (H-WMMAMKYPITA-OH) | 528 | 75 |  |
| CC(C)C[C@H](NC(=O)[C@H](CCCCN)NC(=O)[C@H](CC(C)C)NC(=O)[C@@H](NC(=O)[C@H](CC(N)=O)NC(=O)[C@H](CCC(N)=O)NC(=O)[C@H](CCCCN)NC(=O)[C@@H](NC(=O)[C@H](Cc1ccc(O)cc1)NC(=O)[C@H](CCCCN)NC(=O)[C@@H](N)Cc1ccc(O)cc1)C(C)C)[C@@H](C)O)C(=O)N[C@@H](C)C(=O)N[C@H](C(=O)N[C@@H](Cc1c[nH]cn1)C(=O)N[C@@H](Cc1c[nH]cn1)C(=O)N[C@@H](Cc1c[nH]cn1)C(=O)N[C@@H](Cc1c[nH]cn1)C(=O)N[C@@H](Cc1c[nH]cn1)C(=O)N[C@@H](Cc1c[nH]cn1)C(=O)O)[C@@H](C)O [Reference peptide, reference compound] (H-YKYVKQNTLKLATHHHHHH-OH) |  |  | Kd [1]: 8 nM |
| LLQNSQVYS [NP(306–315)] |  |  | Kd ([1]; pH 7, read-out: HLA-DRB1*01:01 Measured): > 5000 nM; Response: type of immune response, CD4 (second symbol) [3]: - |
